The values that follow come from patent US11883387B2, “PqsR inverse agonists” (HELMHOLTZ-ZENTRUM FÜR INFEKTIONSFORSCHUNG GMBH, priority 2018, dated 2024).

Series [1] in a line: Metabolic stability in mouse liver microsomes (MLM). Conditions: 1 μM compound, 0.5 mg/mL MLM, 1 mM NADPH, 37° C., read-out: half-life (t1/2) towards MLM. The format is in vitro ADME. On the procedure: For the evaluation of phase I metabolic stability, the compound (1 μM) was incubated with 0.5 mg/mL MLM (Corning) and 1 mM NADPH at 37° C. for 0, 5, 10, 15 and 30 min. The metabolic stability of Verapamil, Diphenhydramine and Benzydamine (1 μM each) were determined in parallel to confirm the enzymatic activity of the MLM. The incubation was stopped by addition of 2 volumes of acetonitrile containing internal standard (1 μM Leucine Enkephaline). Samples were centrifuged (15 min, 3,500 rpm). Concentration of the remaining test compound at the different time points was analyzed by HPLC-MS/MS and used to determine half-life (t1/2).

The target in a further series is PqsR (Pseudomonas aeruginosa, UniProt Q9I4X0). Nature of the series: E. coli based β-galactosidase reporter gene assay (PqsR inverse agonistic activity). The format is cell-based. Details: expressed in transfected cells; host or cells: Escherichia coli DH5α. A digest of the protocol: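 E. coli DH5α carrying pEAL08-2 (tac-driven pqsR with pqsA-lacZ) was grown to OD600 0.2 and incubated with 0.001–10 μM compound plus 50 nM PQS for 2.5 h at 37 °C. β-Galactosidase activity was measured by ONPG conversion in permeabilized cells and normalized between the no-PQS and solvent controls. IC50 came from concentration variation.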
PqsR, sequence (Q9I4X0 whole entry): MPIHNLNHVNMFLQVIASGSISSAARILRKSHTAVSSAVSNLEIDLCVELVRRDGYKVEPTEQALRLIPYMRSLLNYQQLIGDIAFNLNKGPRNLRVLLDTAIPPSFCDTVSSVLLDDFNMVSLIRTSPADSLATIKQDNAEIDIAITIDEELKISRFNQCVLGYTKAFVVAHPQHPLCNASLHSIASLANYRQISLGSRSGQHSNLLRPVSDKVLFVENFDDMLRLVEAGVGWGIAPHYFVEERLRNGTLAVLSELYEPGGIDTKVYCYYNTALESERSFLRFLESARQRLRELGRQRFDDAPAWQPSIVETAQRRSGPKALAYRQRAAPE
On the technique in general: A reporter such as luciferase makes a cellular process visible.

In series [2] the test system is P. aeruginosa pyocyanin production. As to the kind of experiment: Pyocyanin assay. The note with it: Pseudomonas aeruginosa, PA14, 16 h, read-out: IC50-value towards pyocyanin production, PA14 in PPGAS medium, 16 h. Type of series: cell-based, P. aeruginosa PA14. A digest of the protocol:
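PA14 in PPGAS medium from OD600 0.02 grown 16 h at 37 °C, 200 rpm, with compounds. Pyocyanin extracted with chloroform, back-extracted into 0.2 M HCl, OD520 normalised to OD600.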

Series [3] can be described thus: Kinetic Turbidimetric Aqueous Solubility at room temperature for 5 min. The note with it: PBS buffer, kinetic from dmso stock, 2% DMSO. Type of series: physicochemical. A digest of the protocol: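 Compound diluted in PBS across typically 0.4–200 μM (final DMSO 2%), held 5 min at room temperature. Turbidity read as absorbance at 620 nm against vehicle control. Four-parameter sigmoidal fit of normalized absorbances with AUC calculation gives Log S.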

`O=C(c1ccccc1)c1ccc(-n2cc(CNc3ccnc(C(F)(F)F)c3)nn2)cc1` [Compound 004, Phenyl(4-(4-(((2-(trifluoromethyl)pyridin-4-yl)amino)methyl)-1H-1,2,3-triazol-1-yl)phenyl)methanone]: the half-life at 1 μM in series [1] was greater than 1 h. In addition, the IC50 (in general, the concentration that gives 50% inhibition) was no more than 50 nM on PqsR and 1000 to 5000 nM in series [2]. Moreover, the solubility – broadly, the concentration that dissolves in the medium under given conditions – at 5 min in series [3] is greater than 25 µM.

With `FC(F)(F)c1cc(NCc2cn(-c3ccc(-n4ccc5ccccc54)cc3)nn2)ccn1` [Compound 040, N-((1-(4-(1H-Indol-1-yl)phenyl)-1H-1,2,3-triazol-4-yl)methyl)-2-(trifluoromethyl)pyridin-4-amine], the half-life at 1 μM in series [1] was in the range of 0.517 to 1 h. The IC50 at PqsR lay within 51 to 250 nM; in series [2], 251 to 1000 nM. In series [3], the solubility at 5 min is greater than 25 µM.

On to `FC(F)(F)c1cc(NCc2cn(-c3ccc(-n4cnc5ccccc54)cc3)nn2)ccn1` [Compound 045, N-((1-(4-(1H-benzo[d]imidazol-1-yl)phenyl)-1H-1,2,3-triazol-4-yl)methyl)-2-(trifluoromethyl)pyridin-4-amine], for which the half-life at 1 μM in series [1] lay within 0.517 to 1 h. The half-inhibitory concentration (IC50) on PqsR lay in the range of 51 to 250 nM; in series [2], 1000 to 5000 nM. The compound also yielded a solubility at 5 min in series [3] greater than 25 µM.

Take `FC(F)(F)c1cc(NCc2cn(-c3ccc(-n4ncc5ccccc54)cc3)nn2)ccn1` [Compound 046, N-((1-(4-(1H-indazol-1-yl)phenyl)-1H-1,2,3-triazol-4-yl)methyl)-2-(trifluoromethyl)pyridin-4-amine]: the half-life at 1 μM in series [1] was 0.517 to 1 h. Also, the results for the IC50 (on PqsR; in series [2]) were 51 to 250 nM and 251 to 1000 nM, respectively. This compound gave a solubility at 5 min in series [3] greater than 25 µM.

As for `Oc1cc(NCc2cn(-c3ccc(Oc4ccccc4)cc3)nn2)cc(C(F)(F)F)n1` [Compound 050, 4-(((1-(4-Phenoxyphenyl)-1H-1,2,3-triazol-4-yl)methyl)amino)-6-(trifluoromethyl)pyridin-2-ol], in series [1], the half-life at 1 μM was greater than 1 h. The IC50 at PqsR is no more than 50 nM; in series [2], 1000 to 5000 nM. In addition, in series [3], the solubility at 5 min is no less than 100 µM.

For the compound `FC(F)(F)c1cc(NCc2cnc(-c3ccc(Cl)nc3)s2)ccn1` [Compound 073, N-((2-(6-Chloropyridin-3-yl)thiazol-5-yl)methyl)-2-(trifluoromethyl)pyridin-4-amine], the half-life at 1 μM in series [1] was greater than 1 h. Besides, the 50% inhibitory concentration (IC50) on PqsR was 51 to 250 nM; in series [2] it was 1000 to 5000 nM. The compound also gave a solubility at 5 min in series [3] of no less than 100 µM.

Take `FC(F)(F)c1cc(NCc2ccc(-c3cnc(Cl)c(Cl)c3)cn2)ccn1` [Compound 102, N-((5′,6′-Dichloro-[3,3′-bipyridin]-6-yl)methyl)-2-(trifluoromethyl)pyridin-4-amine]: the half-life at 1 μM in series [1] lay in the range of 0.517 to 1 h. In addition, the half-maximal inhibitory concentration (IC50) at PqsR fell in the range of 51 to 250 nM; in series [2], 251 to 1000 nM. In series [3], the solubility at 5 min is greater than 50 µM.

`FC(F)(F)c1cc(NCc2nc3cc(Cl)c(Cl)cc3[nH]2)ccn1` [Compound 121, N-((5,6-Dichloro-1H-benzo[d]imidazol-2-yl)methyl)-2-(trifluoromethyl)pyridin-4-amine]: in series [1], the half-life at 1 μM was in the range of 0.517 to 1 h. Also, on PqsR, the half-maximal inhibitory concentration (IC50) lay within 251 to 1000 nM. This compound yielded a solubility at 5 min in series [3] of no less than 100 µM.

For the compound `Fc1ccc(Oc2ccc3[nH]c(CNc4ccnc(C(F)(F)F)c4)nc3c2)cc1` [Compound 172, N-((5-(4-fluorophenoxy)-1H-benzo[d]imidazol-2-yl)methyl)-2-(trifluoromethyl)pyridin-4-amine], in series [1], the half-life at 1 μM lay in the range of 0.517 to 1 h. For the same compound, in series [2], the concentration for half-maximal inhibition (IC50) was in the range of 251 to 1000 nM. The compound also displayed a solubility at 5 min in series [3] greater than 25 µM.

For the compound `Nc1cc(OCc2nc3cc(Oc4ccccc4)ccc3[nH]2)nc(C(F)(F)F)n1` [Compound 181, 6-((5-phenoxy-1H-benzo[d]imidazol-2-yl)methoxy)-2-(trifluoromethyl)pyrimidin-4-amine], in series [1], the half-life at 1 μM was greater than 1 h. In addition, the concentration for half-maximal inhibition (IC50) at PqsR was in the range of 51 to 250 nM. Moreover, the solubility at 5 min in series [3] is greater than 50 µM.
